Results from patent publication US20230256110A1, “COMBINATION OF ANTIBODY-DRUG CONJUGATE AND ATM INHIBITOR” (AstraZeneca UK Limited, priority 2020, published 2023).
Entries after “also recorded” stand apart in the source; their conditions may differ. Structures can show the parent of a compound that is named as a salt.

Legend:
DU145 cell line = experiment: Growth inhibition by total cell (nuclear) count, 96-well imaging; type: cell-based; conditions: Homo sapiens, DU-145; monotherapy; DU145, prostate, HER2 Low; 4 to 8 days
Procedure: (§1) Cells grown in their respective conditions were plated in 96-well plates at optimal density to allow linear proliferation for the duration of the assay (4 to 8 days; duration of treatment is dependent on the growth rate of each cell line). Immediately after plating, the cells were dosed with the indicated compounds for a total volume of 200 μL/well and placed in the incubator. Combinations were conducted as a 6×8 concentration response matrix for each combination. At the endpoint, the cells were fixed in 2% PFA for 20 minutes at room temperature. In order to obtain the number of cells at the start of treatment, one additional plate was used for each experiment and fixed after cells attached. The cells were then permeabilised in 0.5% Triton-X100 in PBS for 10 minutes. After a PBS wash, the cells were blocked in 5% FBS in PBS 1 h at RT and incubated with primary antibodies in 5% FBS+0.05% triton overnight at 4° C. After 3 washes in PBS cells were incubated with secondary antibodies in 5% FBS+0.05% triton with Hoechst33258 for 1 h at room temperature. After 3 washes in PBS, the cells were scanned with a Cellinsight instrument with a 10×objective and 9 fields/well. Images were analysed using Columbus for cell count based on nuclear Hoechst staining and nuclear intensity of other biomarkers investigated. The total cell count/well was used to calculate the relative growth in each well compared to solvent control. […] The mean/well of the sum of the nuclear intensity of the IF biomarkers was also expressed relative to solvent control.

[1] = tested on: DU145-SLFN11 KO (CRISPR-Cas9 gene knockout of SLFN11); experiment: as above; type: cell-based; conditions: monotherapy, prostate, HER2 Low, 4 to 8 days
Procedure: as §1

JIMT-1 cell line = experiment: as above; type: cell-based; conditions: Homo sapiens; monotherapy; JIMT-1, breast, HER2 Expressed; 4 to 8 days
Procedure: as §1

KPL4 cell line [2] = experiment: as above; type: cell-based; conditions: monotherapy; KPL4, breast, HER2 High; 4 to 8 days
Procedure: as §1

MDA-MB-468 cell line [3] = experiment: as above; type: cell-based; conditions: Homo sapiens; monotherapy; MDA-MB-468, breast, HER2 Low; 4 to 8 days
Procedure: as §1

NCI-N87 cell line [4] = experiment: as above; type: cell-based; conditions: Homo sapiens; monotherapy; NCI-N87, gastric, HER2 High; 4 to 8 days
Procedure: as §1

SK-OV-3 cell line = experiment: as above; type: cell-based; conditions: Homo sapiens; monotherapy; SK-OV-3, ovarian, HER2 Moderate; 4 to 8 days
Procedure: as §1

ATM signaling = experiment: Inhibition of ATM signaling, antibody blots of whole-cell extracts; type: cell-based
Procedure: Gastric cancer NCI-N87 and breast carcinoma KPL4 cell lines were cultured in RPMI 1640 supplemented with 10% FCS in a humidified incubator at 37° C. with 5% CO2. Cells were plated in 6-well plates at optimal density to allow linear proliferation for the duration of the assay. […] 7 h, 24 h or 48 h after dosing, whole-cell extracts were obtained by lysis in 50 mM Tris-HCl pH 7.5, 2% SDS containing protease and phosphatase inhibitors. Lysates were boiled for 5 minutes at 95° C. Protein concentration was measured using a Nanodrop at […] and 50 μg of lysate were loaded in 4-12% Bis Tris gels. Proteins were transferred using iblot2. Primary antibodies (see Table 7) were incubated overnight at 4° C. in 3% milk TBS-tween 0.05% and HRP-conjugated secondary antibodies for 1 h at room temperature. Blots were imaged using a G-box.

KAP1 pSer824, γH2AX = experiment: Immunofluorescence biomarkers of ATM activation and DNA damage in KPL4 cells; type: cell-based; conditions: high-HER2 KPL4
Procedure: Cells grown in their respective conditions were plated in 96-well plates at optimal density to allow linear proliferation for the duration of the assay (4 to 8 days; duration of treatment is dependent on the growth rate of each cell line). Immediately after plating, the cells were dosed with the indicated compounds for a total volume of 200 μL/well and placed in the incubator. Combinations were conducted as a 6×8 concentration response matrix for each combination. At the endpoint, the cells were fixed in 2% PFA for 20 minutes at room temperature. In order to obtain the number of cells at the start of treatment, one additional plate was used for each experiment and fixed after cells attached. The cells were then permeabilised in 0.5% Triton-X100 in PBS for 10 minutes. After a PBS wash, the cells were blocked in 5% FBS in PBS 1 h at RT and incubated with primary antibodies in 5% FBS+0.05% triton overnight at 4° C. After 3 washes in PBS cells were incubated with secondary antibodies in 5% FBS+0.05% triton with Hoechst33258 for 1 h at room temperature. After 3 washes in PBS, the cells were scanned with a Cellinsight instrument with a 10×objective and 9 fields/well. Images were analysed using Columbus for cell count based on nuclear Hoechst staining and nuclear intensity of other biomarkers investigated. […]

KPL4 cell line [5] = experiment: High-throughput combination screen, 7-day cell titer-glo cell viability assay; type: cell-based; conditions: within the selected concentration range
Source text: (§2) In addition, trastuzumab and exatecan (DNA topoisomerase I inhibitor) were also screened in parallel with AZD1390.
(§3) • Loewe Dose Additivity predicts the expected response if the two compounds act on the same molecular target by means of the same mechanism. It calculates additivity based on the assumption of zero interaction between the compounds and it is independent from the nature of the dose-response relationship. • HSA (Highest Single Agent) [Berenbaum 1989] quantifies the higher of the two single compound effects at their corresponding concentrations. The combined effect is compared with the effect of each single agent at the concentration used in the combination. Excess over the highest single agent effect indicates cooperativity. […] The predicted values are determined by the chosen model. Differences between the predicted and observed values may indicate synergy or antagonism, and are shown in the Excess Matrix. Excess Matrix values are summarized by the combination scores Excess Volume and Synergy Score.

MDA-MB-468 cell line [6] = experiment: as above; type: cell-based; conditions: within the selected concentration range
Source text: as §2, §3

NCI-N87 cell line [7] = experiment: as above; type: cell-based; conditions: within the selected concentration range
Source text: as §2, §3

T47D cell line = experiment: as above; type: cell-based; conditions: within the selected concentration range
Source text: as §2, §3

[8] = tested on: NCI-N87 tumours implanted subcutaneously; experiment: NCI-N87 xenograft antitumor test in vivo; set-up: species or system Female Nude mice; conditions: AZD1390 10 mg/kg PO QD × 28; day 40 post treatment
[9] = NCI-N87 and KPL4, AZD1390 at 100 nM combined with DS-8201 or exatecan mesylate

## CC[C@@]1(O)C(=O)OCc2c1cc1n(c2=O)Cc2c-1nc1cc(F)c(C)c3c1c2[C@@H](N)CC3 [Exatecan mesylate, (1S,9S)-1-amino-9-ethyl-5-fluoro-1,2,3,9,12,15-hexahydro-9-hydroxy-4-methyl-10H,13H-benzo[de]pyrano[3′,4′:6,7]indolizino[1,2-b]quinolin-10,13-dione, reference compound]
DU145 cell line
  GI50: 0.564 nM
[1]
  GI50: 0.45 nM
JIMT-1 cell line
  GI50: 0.745 nM
KPL4 cell line [2]
  GI50: 1.18 nM
MDA-MB-468 cell line [3]
  GI50: 0.162 nM
NCI-N87 cell line [4]
  GI50: 0.503 nM
SK-OV-3 cell line
  GI50: 0.914 nM
ATM signaling; Her2-high NCI-N87 and KPL4, DS-8201 at 30 μg/mL or exatecan mesylate alone
  activation of the ATM pathway (pATM-S1981, pChk2-T68, pKap1-S824): induced activation of the ATM pathway
KAP1 pSer824, γH2AX
  biomarkers of ATM (KAP1 pSer824) activation and DNA strand breaks (yH2AX): induced in a concentration dependent manner

## CC(C)n1c(=O)n(C)c2cnc3cc(F)c(-c4ccc(OCCCN5CCCCC5)nc4)cc3c21 [AZD1390, 7-fluoro-1-isopropyl-3-methyl-8-[6-[3-(1-piperidyl)propoxy]-3-pyridyl]imidazo[4,5-c]quinolin-2-one]
KPL4 cell line [5]
  Single agent activity (cell viability): not active
MDA-MB-468 cell line [6]
  Single agent activity (cell viability): not active
NCI-N87 cell line [7]
  Single agent activity (cell viability): not active
T47D cell line
  Single agent activity (cell viability): not active
JIMT-1 cell line
  GI50: > 100 nM
KPL4 cell line [2]
  GI50: > 100 nM
MDA-MB-468 cell line [3]
  GI50: > 100 nM
NCI-N87 cell line [4]
  GI50: > 100 nM
SK-OV-3 cell line
  GI50: > 100 nM
[8]
  Best response % TGI/regression: 37%
ATM signaling; [9]
  DNA damage (pRPA, gH2AX): exacerbating the DNA damage
  activation of pATM, pChk2, and pKAP1: inhibited the activation of pATM, pChk2, and pKAP1; also recorded: inhibits DS-8201-induced ATM signaling
  cell death (cCasp3): increased cell death
